# Columns and labels:
# Assay in all cases: cells
# Parameters in all cases: species or system NCI human tumour cell line panel; NCI one-dose anti-proliferative screen, human tumour cell line panel, growth inhibition percent (GI%)
# UACC-257 = conditions: Homo sapiens, UACC-257; growth inhibition (GI%), single dose
# Procedure: (§1) Ten of the newly synthesised 1,2,3-triazolo benzenesulfonamide derivatives were selected by NCI (Bethesda, MD) for evaluating their anti-proliferative activity. The selected compounds were subjected to a primary in vitro one-dose ([…]) anti-proliferative assay against 57 human tumour cell lines following the previously reported method[30] and their obtained growth inhibition percent (GI%) are presented in Table 2. A subset of ten triazolo-benzenesulfonamides (3, 5, 6, 7, 9, 11, 16–18, and 20) were selected and subjected to an in vitro anti-proliferative screening against a panel of 57 cancer cell lines at NCI at an initial high dose ([…]). The human cell lines used were derived from nine cancer types: leukaemia, lung, colon, CNS, melanoma, ovarian, renal, prostate and breast cancers.
# CCRF-CEM = conditions: Homo sapiens, CCRF-CEM; growth inhibition (GI%), single dose
# Procedure: as §1
# HOP-62 = conditions: Homo sapiens, HOP-62; growth inhibition (GI%), single dose
# Procedure: as §1
# T-47D = conditions: Homo sapiens, T47D; growth inhibition (GI%), single dose
# Procedure: as §1
# NCI-H322M = conditions: Homo sapiens, NCI-H322M; growth inhibition (GI%), single dose
# Procedure: as §1
# HS 578T = conditions: Homo sapiens, Hs-578T; growth inhibition (GI%), single dose
# Procedure: as §1
# MOLT-4 = conditions: Homo sapiens, MOLT-4; growth inhibition (GI%), single dose
# Procedure: as §1
# MCF7 = conditions: Homo sapiens, MCF7; growth inhibition (GI%), single dose
# Procedure: as §1
# NCI-H226 = conditions: Homo sapiens, NCI-H226; growth inhibition (GI%), single dose
# Procedure: as §1
# HOP-92 = conditions: Homo sapiens, HOP-92; growth inhibition (GI%), single dose
# Procedure: as §1
# EKVX = conditions: Homo sapiens, EKVX; growth inhibition (GI%), single dose
# Procedure: as §1
# U251 = conditions: Homo sapiens, U-251; growth inhibition (GI%), single dose
# Procedure: as §1
# HT29 = conditions: Homo sapiens, HT-29; growth inhibition (GI%), single dose
# Procedure: as §1
# SK-OV-3 = conditions: Homo sapiens, SK-OV-3; growth inhibition (GI%), single dose
# Procedure: as §1
# SNB-75 = conditions: Homo sapiens, SNB-75; growth inhibition (GI%), single dose
# Procedure: as §1
# HL-60(TB) = conditions: Homo sapiens, HL-60; growth inhibition (GI%), single dose
# Procedure: as §1
# SNB-19 = conditions: Homo sapiens, SNB-19; growth inhibition (GI%), single dose
# Procedure: as §1
# NCI-H522 = conditions: Homo sapiens, NCI-H522; growth inhibition (GI%), single dose
# Procedure: as §1
# LOX IMVI = conditions: Homo sapiens, LOX IMVI; growth inhibition (GI%), single dose
# Procedure: as §1
# NCI-H23 = conditions: Homo sapiens, NCI-H23; growth inhibition (GI%), single dose
# Procedure: as §1
SMILES,inhibition at 10 µM (UACC-257) [%],inhibition at 10 µM (CCRF-CEM) [%],inhibition at 10 µM (HOP-62) [%],inhibition at 10 µM (T-47D) [%],inhibition at 10 µM (NCI-H322M) [%],inhibition at 10 µM (HS 578T) [%],inhibition at 10 µM (MOLT-4) [%],inhibition at 10 µM (MCF7) [%],inhibition at 10 µM (NCI-H226) [%],inhibition at 10 µM (HOP-92) [%],inhibition at 10 µM (EKVX) [%],inhibition at 10 µM (U251) [%],inhibition at 10 µM (HT29) [%],inhibition at 10 µM (SK-OV-3) [%],inhibition at 10 µM (SNB-75) [%],inhibition at 10 µM (HL-60(TB)) [%],inhibition at 10 µM (SNB-19) [%],inhibition at 10 µM (NCI-H522) [%],inhibition at 10 µM (LOX IMVI) [%],inhibition at 10 µM (NCI-H23) [%]
"N#Cc1nnn(-c2ccc(S(N)(=O)=O)cc2)c1N [compound 3, 3]",10.2,15.3,8,5.1,0,5.9,13.3,5.5,5.2,8.2,8.7,0.6,9.4,4.6,15,6.5,2.9,9.7,6.1,–
"N#Cc1nnn(-c2ccc(S(N)(=O)=O)cc2)c1NCC(=O)c1ccccc1 [compound 7, 7]",11.7,16.4,8.3,4.6,8.8,1.7,10.2,6.7,11.8,13.5,9.2,6.4,4.5,8.2,20.1,11.6,7.8,16.1,5.9,2.1
"N#Cc1nnn(-c2ccc(S(N)(=O)=O)cc2)c1/N=C/c1ccc(Cl)cc1 [compound 9, 9]",2.3,15.9,0.1,11.5,–,–,6.9,4.7,4.8,12.8,4.2,4.7,0.4,9.9,2.9,12.6,–,10.5,–,–
"N#Cc1nnn(-c2ccc(S(N)(=O)=O)cc2)c1NS(=O)(=O)c1ccccc1 [compound 11, N-(4-cyano-1-(4-sulfamoylphenyl)-1H-1,2,3-triazol-5-yl)benzenesulfonamide]",8.1,6.7,4.2,9.6,2.6,–,11.2,1.7,–,4.2,2,10.9,5.1,15.1,10.2,10.7,2.8,10.3,–,4.1
"N#Cc1c(-c2ccc(Cl)cc2)nc2c(nnn2-c2ccc(S(N)(=O)=O)cc2)c1N [compound 16, 4-(7-amino-5-(4-chlorophenyl)-6-cyano-3H-[1,2,3]triazolo[4,5-b]pyridin-3-yl)benzenesulfonamide]",6.9,16.4,7.3,5.6,–,12.1,17.6,13.6,9.8,35.4,39.5,2.7,1.2,9.7,20,5.5,3.4,9.8,20.4,11.2
"Nc1nc(=S)[nH]c2c1nnn2-c1ccc(S(N)(=O)=O)cc1 [compound 18, 4-(7-amino-5-thioxo-4,5-dihydro-3H-[1,2,3]triazolo[4,5-d]pyrimidin-3-yl)benzenesulfonamide]",6.1,17.8,4.8,5.8,2.2,9.8,21.3,2.9,9.8,10.6,3.7,–,10.8,11.6,13.9,26.1,1.7,13.7,7.5,4.7
"CCn1c(=S)[nH]c2c(nnn2-c2ccc(S(N)(=O)=O)cc2)c1=N [compound 20, 4-(6-ethyl-7-imino-5-thioxo-4,5,6,7-tetrahydro-3H-[1,2,3]triazolo[4,5-d]pyrimidin-3-yl)benzenesulfonamide]",6.2,20.9,–,–,3.2,2.5,9.1,4.9,6.9,18,3.1,1.9,–,3.6,3.3,8.9,1.9,7.8,4.6,9.4

# Reference: paper PMC6171417, “Carbonic anhydrase inhibition with a series of novel benzenesulfonamide-triazole conjugates” (Journal of Enzyme Inhibition and Medicinal Chemistry, 2018)
